Experimental data published in ChEMBL document CHEMBL1201862, “PubChem BioAssay data set” (2004).
Active and inactive are the calls of the source.

Assays:
[1] = target: T1, E3 ubiquitin-protein ligase XIAP (Homo sapiens, UniProt P98170); assay: SAR analysis of Antagonists of XIAP-Bir3 domain of IAP-family anti-apoptotic proteins. [Related pubchem assays (depositor defined):AID1018, AID1449, AID1513, AID1514, AID1638]
[2] = target: T1, E3 ubiquitin-protein ligase XIAP; assay: SAR analysis of Antagonists of IAP-family anti-apoptotic proteins. [Related pubchem assays (depositor defined):AID1018, AID1449, AID1513, AID1514, AID1638]
[3] = target: T2, Histone-lysine N-methyltransferase NSD2 (Homo sapiens, UniProt O96028); format: biochemical
T2 sequence (O96028 whole entry): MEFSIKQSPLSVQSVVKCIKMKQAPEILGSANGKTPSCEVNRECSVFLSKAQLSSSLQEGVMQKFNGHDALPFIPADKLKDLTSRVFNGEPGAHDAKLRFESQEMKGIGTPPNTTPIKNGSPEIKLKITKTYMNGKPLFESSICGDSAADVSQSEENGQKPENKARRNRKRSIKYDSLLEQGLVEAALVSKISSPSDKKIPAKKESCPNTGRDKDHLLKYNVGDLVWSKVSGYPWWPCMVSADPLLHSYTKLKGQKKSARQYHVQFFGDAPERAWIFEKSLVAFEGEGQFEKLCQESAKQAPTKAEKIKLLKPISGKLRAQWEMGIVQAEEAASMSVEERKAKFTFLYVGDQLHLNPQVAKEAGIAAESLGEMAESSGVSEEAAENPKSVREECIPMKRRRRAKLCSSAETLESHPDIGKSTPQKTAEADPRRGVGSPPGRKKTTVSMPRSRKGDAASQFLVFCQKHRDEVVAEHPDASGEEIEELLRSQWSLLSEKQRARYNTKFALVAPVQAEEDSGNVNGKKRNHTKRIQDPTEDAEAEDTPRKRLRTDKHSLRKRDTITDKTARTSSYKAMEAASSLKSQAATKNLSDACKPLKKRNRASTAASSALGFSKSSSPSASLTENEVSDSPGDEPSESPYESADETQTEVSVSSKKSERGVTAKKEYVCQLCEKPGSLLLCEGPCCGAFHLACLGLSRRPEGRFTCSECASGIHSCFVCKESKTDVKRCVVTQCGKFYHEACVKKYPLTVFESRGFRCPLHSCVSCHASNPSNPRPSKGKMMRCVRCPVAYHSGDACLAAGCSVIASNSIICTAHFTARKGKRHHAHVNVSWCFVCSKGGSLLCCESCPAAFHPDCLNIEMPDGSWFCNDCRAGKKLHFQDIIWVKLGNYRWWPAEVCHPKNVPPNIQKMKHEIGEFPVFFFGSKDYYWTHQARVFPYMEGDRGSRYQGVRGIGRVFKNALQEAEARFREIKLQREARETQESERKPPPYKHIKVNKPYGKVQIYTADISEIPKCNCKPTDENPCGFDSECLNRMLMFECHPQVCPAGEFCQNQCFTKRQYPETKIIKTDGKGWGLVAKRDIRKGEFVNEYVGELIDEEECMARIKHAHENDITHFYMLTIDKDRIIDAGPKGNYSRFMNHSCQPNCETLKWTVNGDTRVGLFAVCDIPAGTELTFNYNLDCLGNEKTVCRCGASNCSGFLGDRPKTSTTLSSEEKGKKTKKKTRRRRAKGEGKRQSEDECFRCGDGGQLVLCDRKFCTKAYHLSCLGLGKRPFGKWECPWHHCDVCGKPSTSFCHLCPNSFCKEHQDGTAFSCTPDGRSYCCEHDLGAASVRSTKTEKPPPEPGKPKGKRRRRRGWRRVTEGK

[4] = target: T3, Alkaline phosphatase, tissue-nonspecific isozyme (Homo sapiens, UniProt P05186); assay: TNAP enzyme inhibition by screening hits, dose response, selectivity assay for mouse IAP inhibitor project, biochemical, human TNAP, uHTS hits (AID 488906); format: functional
T3 sequence (P05186 whole entry): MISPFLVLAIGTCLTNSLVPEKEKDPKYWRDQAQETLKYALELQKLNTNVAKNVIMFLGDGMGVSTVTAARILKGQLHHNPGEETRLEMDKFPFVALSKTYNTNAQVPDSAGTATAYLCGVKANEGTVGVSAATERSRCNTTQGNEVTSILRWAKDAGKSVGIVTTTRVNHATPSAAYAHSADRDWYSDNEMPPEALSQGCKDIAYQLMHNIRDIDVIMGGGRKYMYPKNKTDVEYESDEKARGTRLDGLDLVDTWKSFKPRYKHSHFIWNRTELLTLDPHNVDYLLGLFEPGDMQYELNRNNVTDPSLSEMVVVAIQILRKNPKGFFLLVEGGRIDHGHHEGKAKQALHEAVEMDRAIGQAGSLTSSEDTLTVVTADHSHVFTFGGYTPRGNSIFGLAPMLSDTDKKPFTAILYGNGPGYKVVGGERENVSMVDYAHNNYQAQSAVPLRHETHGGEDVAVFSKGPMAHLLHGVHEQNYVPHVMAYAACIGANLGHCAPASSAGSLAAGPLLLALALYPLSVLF

[5] = target: Intestinal-type alkaline phosphatase (Homo sapiens, UniProt P09923); assay: inhibition of human intestinal alkaline phosphatase – biochemical, dose response (AID 488876); format: functional
[6] = target: Intestinal-type alkaline phosphatase (Mus musculus, UniProt P24822); assay: PubChem AID 488785; format: functional
[7] = target: T4, SUMO-activating enzyme (Homo sapiens, UniProt Q9UBT2); assay: inhibitors of in vitro SUMOylation cascade, primary screen, biochemical, HTRF, uHTS (AID 2006); format: protein-complex assay
[8] = target: Procathepsin L (Homo sapiens, UniProt P07711); assay: cathepsin L inhibitors, dose response, counter-screen for M1/M17 aminopeptidase inhibitor project, biochemical, QFRET, 1536-well (AID 2214)
[9] = target: T4, SUMO-activating enzyme; assay: SUMOylation inhibitor hit validation, confirmation, SUMOylation inhibitor project, biochemical, AlphaScreen (AID 2018); format: functional
[10] = target: T5, Aminopeptidase N (Plasmodium falciparum FcB1/Columbia, UniProt O96935); assay: P. falciparum M1AAP inhibitors, biochemical, fluorogenic H-Leu-NHMec substrate, 1536-well (AID 1445); set-up: species or system Plasmodium falciparum 3D7, 3D7
T5 sequence (O96935 whole entry): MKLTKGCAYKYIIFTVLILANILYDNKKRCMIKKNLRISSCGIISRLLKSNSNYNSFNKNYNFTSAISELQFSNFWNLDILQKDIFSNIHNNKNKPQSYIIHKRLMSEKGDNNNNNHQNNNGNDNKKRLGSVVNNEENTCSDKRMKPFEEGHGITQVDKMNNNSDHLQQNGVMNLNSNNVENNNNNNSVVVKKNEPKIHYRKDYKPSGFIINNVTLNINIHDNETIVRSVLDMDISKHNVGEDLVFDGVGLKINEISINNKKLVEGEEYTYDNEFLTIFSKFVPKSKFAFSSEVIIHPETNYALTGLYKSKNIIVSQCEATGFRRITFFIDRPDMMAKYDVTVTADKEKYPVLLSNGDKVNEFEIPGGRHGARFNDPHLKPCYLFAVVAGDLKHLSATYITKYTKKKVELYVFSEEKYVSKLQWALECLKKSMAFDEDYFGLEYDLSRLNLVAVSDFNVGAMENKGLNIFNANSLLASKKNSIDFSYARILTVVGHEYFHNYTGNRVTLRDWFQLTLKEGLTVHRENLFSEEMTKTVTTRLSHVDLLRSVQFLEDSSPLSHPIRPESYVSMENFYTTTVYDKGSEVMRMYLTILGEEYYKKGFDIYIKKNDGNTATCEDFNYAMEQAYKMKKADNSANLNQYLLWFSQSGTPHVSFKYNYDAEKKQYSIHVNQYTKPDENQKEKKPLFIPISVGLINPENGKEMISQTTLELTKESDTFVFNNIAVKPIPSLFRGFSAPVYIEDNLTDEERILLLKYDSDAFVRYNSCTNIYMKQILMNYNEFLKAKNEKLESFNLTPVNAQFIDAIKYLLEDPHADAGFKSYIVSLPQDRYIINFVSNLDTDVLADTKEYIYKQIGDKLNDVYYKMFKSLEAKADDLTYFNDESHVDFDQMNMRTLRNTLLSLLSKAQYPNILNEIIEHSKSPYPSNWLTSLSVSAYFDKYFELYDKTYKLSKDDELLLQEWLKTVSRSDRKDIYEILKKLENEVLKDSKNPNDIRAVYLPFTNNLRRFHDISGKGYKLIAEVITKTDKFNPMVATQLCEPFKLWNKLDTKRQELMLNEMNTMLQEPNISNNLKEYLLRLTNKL

[11] = target: Genome polyprotein (dengue virus type 2, UniProt P29990); assay: Dengue-2 NS5 methyltransferase inhibitors, primary screen, biochemical, confirmation dose response (AID 588689); format: functional
[12] = target: T6, Aspartyl aminopeptidase (Plasmodium falciparum 3D7, UniProt Q8I2J3); assay: Counterscreen for inhibitors of M1 and M17 aminopeptidases: QFRET-based biochemical high throughput dose response assay for inhibitors of the Plasmodium falciparum M18 Aspartyl Aminopeptidase (PFM18AAP). [Related PubChem assays: 1619 (Screening assay (M17LAP inhibitors).), 1445 (Screening assay (M1AAP inhibitors).)]
T6 sequence (Q8I2J3 whole entry): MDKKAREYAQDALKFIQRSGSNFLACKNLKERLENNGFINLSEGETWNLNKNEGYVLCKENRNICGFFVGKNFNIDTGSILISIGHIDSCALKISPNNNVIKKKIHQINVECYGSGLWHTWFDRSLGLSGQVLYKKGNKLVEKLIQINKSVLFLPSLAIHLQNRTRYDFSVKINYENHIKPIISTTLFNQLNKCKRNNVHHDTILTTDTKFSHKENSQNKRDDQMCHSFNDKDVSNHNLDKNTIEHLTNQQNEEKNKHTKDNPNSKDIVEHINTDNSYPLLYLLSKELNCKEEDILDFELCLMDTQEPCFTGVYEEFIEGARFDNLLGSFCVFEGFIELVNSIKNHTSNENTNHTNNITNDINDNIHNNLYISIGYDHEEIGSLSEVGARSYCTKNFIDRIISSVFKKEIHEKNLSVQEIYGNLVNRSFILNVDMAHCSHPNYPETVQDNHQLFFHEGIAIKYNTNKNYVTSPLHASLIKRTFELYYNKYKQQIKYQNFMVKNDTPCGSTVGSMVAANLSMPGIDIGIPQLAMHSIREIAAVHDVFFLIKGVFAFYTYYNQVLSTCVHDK

[13] = insulin promoter down-regulators in MIN6 cells, imaging, high-content screening, mouse beta cells (AID 1628); format: functional
[14] = cytotoxicity in MIN6 insulinoma cells, dose response, cytotoxicity control, cell-based, mouse insulinoma (AID 2122); format: functional;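 note: confirmatory high-throughput counterscreen run to flag cytotoxic compounds; mouse MIN-6 beta cells carrying an insulin promoter eGFP reporter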
[15] = cells; format: functional, cell-based
[16] = cells; format: functional, cell-based; remark: listed apart in the source
[17] = target: Nonstructural protein 1 (Influenza A virus, UniProt Q194T2); format: functional, Influenza A virus (A/California/07/2009(H1N1))
[18] = target: Cytochrome P450 3A4 (Homo sapiens, UniProt P08684);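 note: CYP3A4 tested as one member of a cytochrome P450 panel screen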
[19] = system: Escherichia coli; assay: microbe, parasite or virus in culture
[20] = target: Potassium voltage-gated channel subfamily KQT member 2 (Rattus norvegicus, UniProt O88943); assay: KCNQ2 channel activators, analog series, SAR follow-up, automated patch clamp, KCNQ2-CHO cells (AID 493113); format: functional
Sequence of Potassium voltage-gated channel subfamily KQT member 2 (O88943 whole entry): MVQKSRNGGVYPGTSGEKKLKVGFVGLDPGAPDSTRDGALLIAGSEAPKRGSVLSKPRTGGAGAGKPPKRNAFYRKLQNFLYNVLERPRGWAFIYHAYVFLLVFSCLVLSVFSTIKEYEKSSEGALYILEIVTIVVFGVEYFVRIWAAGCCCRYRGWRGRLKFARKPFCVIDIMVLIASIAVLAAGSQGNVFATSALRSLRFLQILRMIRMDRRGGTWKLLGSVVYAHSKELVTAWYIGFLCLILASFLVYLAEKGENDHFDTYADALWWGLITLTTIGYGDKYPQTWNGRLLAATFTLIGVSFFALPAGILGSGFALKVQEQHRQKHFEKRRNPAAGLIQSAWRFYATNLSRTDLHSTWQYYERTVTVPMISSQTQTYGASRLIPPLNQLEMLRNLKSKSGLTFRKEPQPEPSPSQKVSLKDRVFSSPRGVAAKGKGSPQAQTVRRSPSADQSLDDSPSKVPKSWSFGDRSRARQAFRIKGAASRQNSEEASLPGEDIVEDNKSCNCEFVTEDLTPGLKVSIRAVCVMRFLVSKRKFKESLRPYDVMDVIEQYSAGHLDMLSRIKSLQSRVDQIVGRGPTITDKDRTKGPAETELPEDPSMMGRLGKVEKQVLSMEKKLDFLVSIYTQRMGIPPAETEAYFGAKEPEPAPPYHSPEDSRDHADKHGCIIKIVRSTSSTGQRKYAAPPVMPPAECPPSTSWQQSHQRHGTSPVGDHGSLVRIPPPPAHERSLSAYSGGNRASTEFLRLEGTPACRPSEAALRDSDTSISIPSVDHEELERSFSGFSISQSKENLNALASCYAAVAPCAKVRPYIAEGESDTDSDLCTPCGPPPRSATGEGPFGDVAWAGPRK

T1 sequence (P98170 whole entry, the tested form may be a part): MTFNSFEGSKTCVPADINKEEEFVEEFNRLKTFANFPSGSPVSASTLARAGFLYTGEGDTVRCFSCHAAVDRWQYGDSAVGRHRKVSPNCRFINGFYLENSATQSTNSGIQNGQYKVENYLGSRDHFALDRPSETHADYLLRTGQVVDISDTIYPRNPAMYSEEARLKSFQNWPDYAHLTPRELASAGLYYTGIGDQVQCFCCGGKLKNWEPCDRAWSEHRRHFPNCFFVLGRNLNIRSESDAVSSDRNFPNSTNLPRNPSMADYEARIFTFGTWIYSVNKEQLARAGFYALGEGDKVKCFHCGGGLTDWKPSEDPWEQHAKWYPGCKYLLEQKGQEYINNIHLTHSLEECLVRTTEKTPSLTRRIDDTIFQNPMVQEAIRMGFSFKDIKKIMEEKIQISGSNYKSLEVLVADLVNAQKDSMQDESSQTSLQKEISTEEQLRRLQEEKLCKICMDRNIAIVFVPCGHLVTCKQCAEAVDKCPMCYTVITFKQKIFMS
T4 sequence (Q9UBE0 whole entry): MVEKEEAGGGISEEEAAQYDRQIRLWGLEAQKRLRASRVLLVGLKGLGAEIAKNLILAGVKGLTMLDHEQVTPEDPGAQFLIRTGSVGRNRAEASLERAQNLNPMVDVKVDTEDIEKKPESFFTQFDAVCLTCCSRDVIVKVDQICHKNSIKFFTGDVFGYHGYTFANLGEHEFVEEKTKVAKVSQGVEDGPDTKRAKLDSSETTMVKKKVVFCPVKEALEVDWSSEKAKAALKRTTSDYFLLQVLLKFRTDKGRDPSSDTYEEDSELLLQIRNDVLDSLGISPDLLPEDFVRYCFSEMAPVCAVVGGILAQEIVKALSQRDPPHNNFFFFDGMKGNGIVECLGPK
T4 sequence (Q9UBT2 whole entry): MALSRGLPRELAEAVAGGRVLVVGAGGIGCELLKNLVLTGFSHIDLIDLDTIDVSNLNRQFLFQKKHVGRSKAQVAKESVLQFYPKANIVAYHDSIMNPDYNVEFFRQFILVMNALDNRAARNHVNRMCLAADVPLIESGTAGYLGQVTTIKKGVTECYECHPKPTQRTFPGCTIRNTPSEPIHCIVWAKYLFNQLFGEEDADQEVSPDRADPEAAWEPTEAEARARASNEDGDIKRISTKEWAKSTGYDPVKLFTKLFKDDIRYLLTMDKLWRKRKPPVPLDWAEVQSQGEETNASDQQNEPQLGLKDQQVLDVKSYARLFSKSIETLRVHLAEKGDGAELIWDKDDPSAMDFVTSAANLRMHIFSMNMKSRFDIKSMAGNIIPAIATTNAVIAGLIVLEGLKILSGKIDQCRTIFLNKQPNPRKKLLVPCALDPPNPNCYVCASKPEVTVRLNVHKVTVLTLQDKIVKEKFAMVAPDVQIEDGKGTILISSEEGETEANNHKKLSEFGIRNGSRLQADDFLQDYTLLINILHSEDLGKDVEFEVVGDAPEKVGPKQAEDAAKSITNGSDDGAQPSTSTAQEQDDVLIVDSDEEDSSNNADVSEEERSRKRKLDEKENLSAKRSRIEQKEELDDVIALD
Sequence of Intestinal-type alkaline phosphatase (Mus musculus, UniProt P24822) (P24822 whole entry): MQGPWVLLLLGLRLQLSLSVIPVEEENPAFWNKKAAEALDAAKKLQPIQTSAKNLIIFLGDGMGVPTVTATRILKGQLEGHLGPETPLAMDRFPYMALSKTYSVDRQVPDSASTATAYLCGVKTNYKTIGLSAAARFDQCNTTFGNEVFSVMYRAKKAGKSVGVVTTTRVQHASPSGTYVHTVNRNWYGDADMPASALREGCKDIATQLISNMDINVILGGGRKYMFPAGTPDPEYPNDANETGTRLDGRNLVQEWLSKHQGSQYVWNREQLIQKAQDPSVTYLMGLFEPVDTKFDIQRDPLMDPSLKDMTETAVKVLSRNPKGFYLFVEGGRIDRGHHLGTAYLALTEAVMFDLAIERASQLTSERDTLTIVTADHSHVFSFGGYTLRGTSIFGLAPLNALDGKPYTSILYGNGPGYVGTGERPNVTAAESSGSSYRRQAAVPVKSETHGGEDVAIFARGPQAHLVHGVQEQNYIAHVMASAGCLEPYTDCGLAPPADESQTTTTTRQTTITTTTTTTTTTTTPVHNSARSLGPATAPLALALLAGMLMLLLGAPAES
Sequence of Procathepsin L (P07711 whole entry): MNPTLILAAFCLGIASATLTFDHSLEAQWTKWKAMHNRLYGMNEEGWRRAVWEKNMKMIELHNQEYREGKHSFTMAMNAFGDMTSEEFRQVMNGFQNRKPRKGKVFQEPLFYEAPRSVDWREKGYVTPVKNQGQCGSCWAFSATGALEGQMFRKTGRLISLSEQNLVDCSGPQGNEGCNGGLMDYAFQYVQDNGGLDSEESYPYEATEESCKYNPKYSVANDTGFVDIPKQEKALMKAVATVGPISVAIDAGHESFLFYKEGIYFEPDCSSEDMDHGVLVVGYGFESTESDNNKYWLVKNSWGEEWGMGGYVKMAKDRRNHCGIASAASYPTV
Sequence of Genome polyprotein (P29990 2492-3391 limits assumed): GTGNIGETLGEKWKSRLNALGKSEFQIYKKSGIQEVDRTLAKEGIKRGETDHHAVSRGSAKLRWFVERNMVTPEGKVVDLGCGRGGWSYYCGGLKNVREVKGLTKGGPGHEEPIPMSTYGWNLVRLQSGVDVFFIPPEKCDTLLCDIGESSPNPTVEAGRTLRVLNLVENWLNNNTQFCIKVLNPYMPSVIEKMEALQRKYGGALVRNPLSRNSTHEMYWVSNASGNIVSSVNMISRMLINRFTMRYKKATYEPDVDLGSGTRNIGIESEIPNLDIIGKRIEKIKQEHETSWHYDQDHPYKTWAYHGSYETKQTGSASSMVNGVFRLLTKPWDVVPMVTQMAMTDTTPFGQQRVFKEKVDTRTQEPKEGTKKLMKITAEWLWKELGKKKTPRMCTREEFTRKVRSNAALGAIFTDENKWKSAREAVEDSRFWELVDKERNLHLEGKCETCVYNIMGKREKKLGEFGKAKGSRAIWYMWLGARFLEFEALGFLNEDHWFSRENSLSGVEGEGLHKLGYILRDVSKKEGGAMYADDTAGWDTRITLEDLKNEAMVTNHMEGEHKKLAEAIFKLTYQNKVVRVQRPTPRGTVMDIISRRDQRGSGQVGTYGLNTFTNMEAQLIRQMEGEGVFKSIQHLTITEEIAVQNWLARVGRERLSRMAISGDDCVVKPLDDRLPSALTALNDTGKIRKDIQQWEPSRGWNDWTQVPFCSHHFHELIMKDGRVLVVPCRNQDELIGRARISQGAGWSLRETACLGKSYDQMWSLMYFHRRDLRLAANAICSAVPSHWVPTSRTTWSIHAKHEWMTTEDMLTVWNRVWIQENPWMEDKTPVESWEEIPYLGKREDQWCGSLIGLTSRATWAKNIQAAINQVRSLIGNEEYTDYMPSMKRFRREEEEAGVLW
Sequence of Cytochrome P450 3A4 (P08684 whole entry): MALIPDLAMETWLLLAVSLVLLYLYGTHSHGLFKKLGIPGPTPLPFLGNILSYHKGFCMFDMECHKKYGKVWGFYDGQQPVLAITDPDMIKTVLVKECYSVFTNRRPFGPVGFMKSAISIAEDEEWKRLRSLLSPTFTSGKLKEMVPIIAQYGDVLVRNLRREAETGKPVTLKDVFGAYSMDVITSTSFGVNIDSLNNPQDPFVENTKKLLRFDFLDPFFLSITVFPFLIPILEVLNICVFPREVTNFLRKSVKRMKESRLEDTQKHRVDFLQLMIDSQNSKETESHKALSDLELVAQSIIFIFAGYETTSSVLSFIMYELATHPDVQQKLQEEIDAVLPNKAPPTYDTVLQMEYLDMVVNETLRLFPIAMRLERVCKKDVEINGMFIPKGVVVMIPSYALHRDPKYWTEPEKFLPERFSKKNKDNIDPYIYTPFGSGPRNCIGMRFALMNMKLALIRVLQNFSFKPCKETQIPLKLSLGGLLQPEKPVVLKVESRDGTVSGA
Sequence of Nonstructural protein 1 (Q194T2 whole entry): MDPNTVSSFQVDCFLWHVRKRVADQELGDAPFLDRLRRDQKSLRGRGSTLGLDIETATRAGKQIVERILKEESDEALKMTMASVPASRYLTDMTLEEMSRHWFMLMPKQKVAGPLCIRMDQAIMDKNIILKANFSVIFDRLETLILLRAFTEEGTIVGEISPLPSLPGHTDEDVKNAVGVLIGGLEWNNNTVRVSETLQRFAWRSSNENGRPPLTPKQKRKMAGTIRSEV

CC(C)[C@H](NC(=O)[C@H](C)N)C(=O)N[C@@H](C)C(=O)Nc1cccc2ccccc12
IC50 [1]: 103 µM (active) | IC50 [2]: 1.8 µM (active)

O=C(CSc1nc2nn(-c3ccccc3)c(=O)c-2c2n1CCCCC2)c1ccc(O)c(O)c1
AC50 [3]: 2.62 µM (active) | IC50 [4]: > 100 µM (inactive) | IC50 [5]: > 100 µM (inactive) | IC50 [6]: 9.04 µM (active)

CC(/C=C1\SC(=S)N(C(C(=O)O)c2ccccc2)C1=O)=C\c1ccccc1 (stereo not given)
IC50 [7]: 26.8 µM (active) | IC50 [8]: > 59.6 µM (not active) | IC50 [9]: 10.9 µM (active) | IC50 [10]: 12.4 µM (active) | IC50 [11]: 38.5 µM (active) | IC50 [12]: > 73.5 µM (not active)

CN[C@@H](C)C(=O)N[C@H](C(=O)N[C@@H](C)C(=O)Nc1cccc2ncccc12)C(C)C
IC50 [1]: > 100 µM (inactive) | IC50 [2]: > 100 µM (inactive)

c1ccc(-c2ccccc2OCCOCCN2CCc3ccccc3C2)cc1
IC50 [13]: 2.55 µM (active) | IC50 [14]: 3.85 µM (active)

Cc1cc(NC(c2cccnc2)c2ccc3cccnc3c2O)no1 (stereo not given)
IC50 [13]: 3.53 µM (active) | EC50 [15]: > 350 µM (not active) | EC50 [16]: 11.9 µM (active) | IC50 [17]: 7.09 µM (active) | IC50 [14]: 3.65 µM (active)

O=C(c1ccccc1)c1ccc(OCC(O)CN2CCN(Cc3ccccc3)CC2)cc1 (stereo not given)
AC50 [18]: inconclusive

COC(=O)CN1C(=O)N/C(=C/c2ccccc2OC)C1=O
AC50 [19]: 60.7 µM (active)

Cc1cccc(NC(=O)C2CC3CCC2C3)c1C (stereo not given)
EC50 [20]: 1 µM (active)

Cc1ccc(NC(=O)C2CC3CCC2C3)cc1 (stereo not given)
EC50 [20]: 0.75 µM (active)
